The text below walks through data of ChEMBL document CHEMBL1124307, “Synthesis and beta-adrenergic antagonism of 2-(aryloxy)-1-(2-piperidyl)ethanols” (J Med Chem, 1988).

Activity calls are given as the source filed them. No cut-off for these calls is given here.

The first experiment is filed under the species Cavia porcellus. Briefly: Antagonism ([…] blocking activity) of isoprenaline-induced positive inotropic effect in guinea pig left atrium; Inactive. The note with it: Cardiac atrium. It counts as functional.
As to `O[C@H](COCCCc1ccccc1)[C@H]1CCCCN1` (relative stereo), the pA2 entry was “inactive”.

A further experiment is filed under the species Cavia porcellus. Briefly: Selectivity of inhibition at beta-1 versus beta-2 adrenergic receptors, […].
Details: not given
Take `O[C@H](COCc1ccccc1)[C@H]1CCCCN1` (relative stereo): the Ratio came out at 0.4.

Take `Cc1ccc(OC[C@@H](O)[C@@H]2CCCCN2)cc1` (relative stereo): the Ratio amounted to 0.8.

With `O[C@H](COCc1ccccc1)[C@@H]1CCCCN1` (relative stereo), the Ratio is 2.5.

Turning to `O[C@H](COc1cccc2ccccc12)[C@@H]1CCCCN1` (relative stereo), the Ratio was determined as 0.4.

As for `O[C@H](COCCCc1ccccc1)[C@@H]1CCCCN1` (relative stereo), the Ratio came out at 0.1.

As to `CC(C)NCC(O)COc1ccc2ccccc2c1` (stereo not drawn), the Ratio worked out at 0.9.

Turning to `CN1CCCC[C@H]1[C@H](O)COc1ccccc1` (relative stereo), the Ratio was determined as 1.4.

As to `Cc1cccc(OC[C@@H](O)[C@H]2CCCCN2)c1` (relative stereo), the Ratio was found to be 0.5.

With `CC(C)N(C)CC(O)COc1ccccc1` (stereo not drawn), the Ratio came out at 2.2.

Consider `Cc1ccc(OC[C@@H](O)[C@H]2CCCCN2)cc1` (relative stereo), for which the Ratio was 1.2.

For the compound `CN1CCCC[C@@H]1[C@H](O)COc1ccccc1`, the Ratio worked out at 0.7.

Take `Cc1cccc(OC[C@@H](O)[C@@H]2CCCCN2)c1` (relative stereo): the Ratio came to 0.03.

As to `O[C@H](COc1ccccc1)[C@@H]1CCCCN1` (relative stereo), the Ratio is 1.7.

For `CC(C)NCC(O)COCCCc1ccccc1` (stereo not drawn), the Ratio was 0.5.

As for `Cc1ccc(OCC(O)CNC(C)C)cc1` (stereo not drawn), the Ratio was 1.8.

With `O[C@H](COc1ccccc1)[C@H]1CCCCN1` (relative stereo), the Ratio turned out to be 0.7.

Take `CC(C)NCC(O)COCc1ccccc1` (stereo not drawn): the Ratio worked out at 1.

With `Cc1cccc(OCC(O)CNC(C)C)c1` (stereo not drawn), the Ratio amounted to 6.5.

As to `O[C@H](COc1ccc2ccccc2c1)[C@@H]1CCCCN1` (relative stereo), the Ratio is 1.8.

Take `CC(C)NCC(O)COc1ccccc1` (stereo not drawn): the Ratio worked out at 8.1.

`O[C@H](COc1cccc2ccccc12)[C@H]1CCCCN1` (relative stereo): the Ratio turned out to be 0.7.

`O[C@H](COc1ccc2ccccc2c1)[C@H]1CCCCN1` (relative stereo): the Ratio worked out at 2.
